The text below walks through data of PMC10937419, “Exploring pyrrolidinyl-spirooxindole natural products as promising platforms for the synthesis of novel spirooxindoles as EGFR/CDK2 inhibitors for halting breast cancer cells” (Frontiers in Chemistry, 2024).

As a reminder, the IC50 is the concentration that gives 50% inhibition. One may read the inhibition as how much of the control response was suppressed.

Where two headings read alike, the source gives them in different places.

In one experiment the test system is MCF-7 cells. Description: MTT cytotoxicity assay, MCF-7 breast cancer cells. It counts as cell-based. As to conditions: Homo sapiens. How it is done:
(§1) All cells were incubated at 37 °C in 5% carbon dioxide atmosphere (NuAire). Cells were plated at a density of 5x10^4 cells in triplicates in a plate of 96 wells. On the second day, cells were treated with the compounds with concentrations of (0.01, 0.1, 1, 10, and 100 µM). Cell viability was assessed using the MTT assay [6].
(Formazan colour is commonly taken as a measure of viable cells.)

The subject of the next experiment is MDA-MB-231 cells. Put plainly: MTT cytotoxicity assay, MDA-MB-231 breast cancer cells. It counts as cell-based. The protocol: as §1
Another experiment concerns WISH cells. Put plainly: MTT cytotoxicity (safety) assay, normal WISH cells. The class given is cell-based. As to conditions: mean ± SD of three independent trials. How it is done:
The cytotoxicity of the synthesized compounds was tested using the MTT assay on breast cancer cells (MCF-7 and MDA-MB-231).
The methods for the Cytotoxic activity ([Mosmann, 1983]; [Nafie et al., 2020a]); EGFR/CDK-2 enzyme inhibition ([Nafie et al., 2022a]); Flow cytometry using Annexin V/PI staining; Gene expression analysis using RT-PCR ([Nafie et al., 2022b]); are amended in the Supplementary Material S1.
Both breast cancer; MCF-7 and MDA-MB-231 and normal (WISH) cells were purchased from the National Research Institute, Egypt, and maintained in RPMI-1640 medium L-Glutamine (Lonza Verviers SPRL, Belgium, cat#12-604F). All cells were incubated at 37 °C in 5% carbon dioxide atmosphere (NuAire). Cells were plated at a density of 5x10^4 cells in triplicates in a plate of 96 wells. On the second day, cells were treated with the compounds with concentrations of (0.01, 0.1, 1, 10, and 100 µM). Cell viability was assessed using the MTT assay [6].

The next experiment has as its target T1, CDK-2 kinase (Homo sapiens, UniProt P24941).
T1 construct: purchased not clearly printed (Promega, USA is printed after 'Kinase-Glo Plus'; #79599 is a BPS Bioscience number to my knowledge) 79599
Put plainly: CDK-2 kinase inhibition assay (Kinase-Glo Plus). It counts as biochemical. The conditions noted are these: for CDK-2 kinase activity remaining (% of control): signal relative to control. The protocol:
(§2) Inhibitory activities of 5g, 5l, and 5n were tested against EGFR and CDK-2.
(§3) Plus, Promega, USA) inhibition assay.
(Kinase-Glo reads ATP consumption through a luciferase reaction.)

A further experiment deals with T2, EGFR kinase (Homo sapiens, UniProt P00533).
T2 construct: purchased BPS Bioscience Corporation 40321
T2 sequence (P00533 25-1210): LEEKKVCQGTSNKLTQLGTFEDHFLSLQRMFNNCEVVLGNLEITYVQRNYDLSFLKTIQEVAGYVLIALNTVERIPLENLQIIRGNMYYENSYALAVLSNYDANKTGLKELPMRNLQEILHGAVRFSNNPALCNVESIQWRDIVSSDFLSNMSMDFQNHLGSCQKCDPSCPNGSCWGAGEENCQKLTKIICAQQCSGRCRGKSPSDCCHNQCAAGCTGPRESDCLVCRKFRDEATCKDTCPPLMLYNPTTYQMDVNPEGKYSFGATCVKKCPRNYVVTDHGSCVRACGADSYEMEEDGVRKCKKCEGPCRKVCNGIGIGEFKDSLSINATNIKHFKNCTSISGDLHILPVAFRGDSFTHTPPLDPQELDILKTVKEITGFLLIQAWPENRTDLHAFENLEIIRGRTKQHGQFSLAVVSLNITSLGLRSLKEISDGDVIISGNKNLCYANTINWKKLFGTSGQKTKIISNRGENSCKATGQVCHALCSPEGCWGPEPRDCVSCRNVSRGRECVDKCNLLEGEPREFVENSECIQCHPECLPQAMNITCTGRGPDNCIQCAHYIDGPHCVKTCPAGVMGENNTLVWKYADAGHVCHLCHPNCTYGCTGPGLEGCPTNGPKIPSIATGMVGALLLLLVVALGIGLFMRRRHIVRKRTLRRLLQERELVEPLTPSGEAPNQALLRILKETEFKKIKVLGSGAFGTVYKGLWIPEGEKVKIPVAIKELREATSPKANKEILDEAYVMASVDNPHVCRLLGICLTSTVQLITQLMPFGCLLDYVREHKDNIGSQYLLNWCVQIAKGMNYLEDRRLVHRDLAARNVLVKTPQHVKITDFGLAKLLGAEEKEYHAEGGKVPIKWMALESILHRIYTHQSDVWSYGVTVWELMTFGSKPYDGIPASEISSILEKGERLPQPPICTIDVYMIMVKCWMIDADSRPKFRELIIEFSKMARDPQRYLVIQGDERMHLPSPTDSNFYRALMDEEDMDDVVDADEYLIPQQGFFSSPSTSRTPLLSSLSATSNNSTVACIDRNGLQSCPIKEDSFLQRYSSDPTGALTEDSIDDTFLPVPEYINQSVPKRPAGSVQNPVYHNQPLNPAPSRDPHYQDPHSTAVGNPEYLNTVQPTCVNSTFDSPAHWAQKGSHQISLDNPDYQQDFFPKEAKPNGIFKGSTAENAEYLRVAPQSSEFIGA
Put plainly: EGFR kinase inhibition assay. The class given is biochemical. The conditions noted are these: for % remaining EGFR kinase activity (relative to control): signal relative to control. How it is done:
as §2, §3

[1] abbreviates: MCF7, MTT assay, mean ± SD of three independent trials, read-out: IC50 ± SD, MCF-7.
[2] abbreviates: Homo sapiens, MDA-MB-231, MTT assay, mean ± SD of three independent trials, read-out: IC50 ± SD, MDA-MB-231.
The mark [3] stands for this setting: average of three independent replicates.

For `COC(=O)CNC(=O)CN1C(=O)S[C@@]2(C1=O)[C@@H](c1ccc(Cl)cc1)[C@H]1CSCN1[C@@]21C(=O)Nc2ccc(Cl)cc21` [Compound 5a, Methyl (2-((3S,6′S,7′S,7a′S)-5-chloro-7'-(4-chlorophenyl)-2,2″,4″-trioxo-7′,7a′-dihydro-1′H,3′H-dispiro [indoline-3,5′-pyrrolo [1,2-c]thiazole-6′,5″-thiazolidin]-3″-yl)acetyl)glycinate], the results for the IC50 with MCF-7 cells (setting [1]) and with MDA-MB-231 cells (setting [2]) were 5.87 ± 0.5 µM and 29.5 ± 1.3 µM, respectively.

Take `COC(=O)CNC(=O)CN1C(=O)S[C@@]2(C1=O)[C@@H](c1ccc(Cl)cc1)[C@H]1CSCN1[C@@]21C(=O)Nc2cc(Cl)ccc21` [Compound 5b, Methyl (2-((3S,6′S,7′S,7a′S)-6-chloro-7'-(4-chlorophenyl)-2,2″,4″-trioxo-7′,7a′-dihydro-1′H,3′H-dispiro [indoline-3,5′-pyrrolo [1,2-c]thiazole-6′,5″-thiazolidin]-3″-yl)acetyl)glycinate]: the figures for the IC50 in the experiment on MCF-7 cells (setting [1]) and in the experiment on MDA-MB-231 cells (setting [2]) were 7.8 ± 0.32 µM and 32.5 ± 0.42 µM, respectively.

For `O=C(O)CN1C(=O)S[C@@]2(C1=O)[C@@H](c1ccc(Cl)cc1)[C@H]1CSCN1[C@@]21C(=O)Nc2cc(Cl)ccc21` [Compound 5c, 2-((3S,6′S,7′S,7a′S)-6-chloro-7'-(4-chlorophenyl)-2,2″,4″-trioxo-7′,7a′-dihydro-1′H,3′H-dispiro [indoline-3,5′-pyrrolo [1,2-c]thiazole-6′,5″-thiazolidin]-3″-yl)acetic acid], the results for the IC50 with MCF-7 cells (setting [1]) and in the experiment with MDA-MB-231 cells (setting [2]) were 15.8 ± 0.4 µM and 24.2 ± 1.1 µM, respectively.

Consider `O=C(O)CN1C(=O)S[C@@]2(C1=O)[C@@H](c1ccc(Cl)cc1)[C@H]1CSCN1[C@@]21C(=O)Nc2ccc(F)cc21` [Compound 5d, 2-((3S,6′S,7′S,7a′S)-7'-(4-Chlorophenyl)-5-fluoro-2,2″,4″-trioxo-7′,7a′-dihydro-1′H,3′H-dispiro [indoline-3,5′-pyrrolo [1,2-c]thiazole-6′,5″-thiazolidin]-3″-yl)acetic acid], for which the figures for the IC50 in the experiment with MCF-7 cells (setting [1]) and in the experiment on MDA-MB-231 cells (setting [2]) were 19.4 ± 0.4 µM and 9.8 ± 0.35 µM, respectively.

Take `Cc1ccc2c(c1)[C@@]1(C(=O)N2)N2CSC[C@@H]2[C@H](c2ccc(Cl)cc2)[C@]12SC(=O)N(CC(=O)O)C2=O` [Compound 5e, 2-((3S,6′S,7′S,7a′S)-7'-(4-Chlorophenyl)-5-methyl-2,2″,4″-trioxo-7′,7a′-dihydro-1′H,3′H-dispiro [indoline-3,5′-pyrrolo [1,2-c]thiazole-6′,5″-thiazolidin]-3″-yl)acetic acid]: the IC50 was 9.8 ± 0.7 µM with MCF-7 cells (setting [1]) and 5.4 ± 0.6 µM in the experiment with MDA-MB-231 cells (setting [2]).

Turning to `O=C(O)CN1C(=O)S[C@@]2(C1=O)[C@@H](c1ccc(Cl)cc1)[C@H]1CSCN1[C@@]21C(=O)Nc2ccc([N+](=O)[O-])cc21` [Compound 5f, 2-((3S,6′S,7′S,7a′S)-7'-(4-Chlorophenyl)-5-nitro-2,2″,4″-trioxo-7′,7a′-dihydro-1′H,3′H-dispiro [indoline-3,5′-pyrrolo [1,2-c]thiazole-6′,5″-thiazolidin]-3″-yl)acetic acid], the IC50 in the experiment with MCF-7 cells (setting [1]) came out at 18.5 ± 0.6 µM; in the experiment with MDA-MB-231 cells (setting [2]) it was 35.5 ± 1.1 µM.

As to `O=C(CN1C(=O)S[C@@]2(C1=O)[C@@H](c1ccc(Cl)cc1)[C@H]1CSCN1[C@@]21C(=O)Nc2ccc([N+](=O)[O-])cc21)NCCN1CCOCC1` [Compound 5i], the IC50 with MCF-7 cells (setting [1]) came out at 28.7 ± 0.8 µM; in the experiment on MDA-MB-231 cells (setting [2]), 35.3 ± 1.2 µM.

Consider `O=C(CN1C(=O)S[C@@]2(C1=O)[C@@H](c1ccc(Cl)cc1)[C@H]1CSCN1[C@@]21C(=O)Nc2ccc(F)cc21)NCCN1CCOCC1` [Compound 5j], for which the IC50 was 23.4 ± 1.2 µM with MCF-7 cells (setting [1]) and 21.4 ± 0.8 µM in the experiment with MDA-MB-231 cells (setting [2]).

For the molecule `O=C(CN1C(=O)S[C@@]2(C1=O)[C@@H](c1ccc(Cl)cc1)[C@H]1CSCN1[C@@]21C(=O)Nc2ccc(Cl)cc21)NCCN1CCOCC1` [Compound 5k], the figures for the IC50 in the experiment with MCF-7 cells (setting [1]) and with MDA-MB-231 cells (setting [2]) were 21.4 ± 0.9 µM and 19.5 ± 0.7 µM, respectively.

`COC(=O)[C@@H](NC(=O)CN1C(=O)S[C@@]2(C1=O)[C@@H](c1ccc(Br)cc1)[C@H]1CSCN1[C@@]21C(=O)Nc2cc(Cl)ccc21)C(C)C` [Compound 5l, Methyl (2-((3S,6′S,7′S,7a′S)-7'-(4-bromophenyl)-6-chloro-2,2″,4″-trioxo-7′,7a′-dihydro-1′H,3′H-dispiro [indoline-3,5′-pyrrolo [1,2-c]thiazole-6′,5″-thiazolidin]-3″-yl)acetyl)valinate]: the IC50 in the experiment on WISH cells stood at 43.5 ± 2 µM; on CDK-2 kinase (setting [3]), 0.345 µM; against EGFR kinase (setting [3]), 0.067 ± 0.001 µM; in the experiment with MCF-7 cells (setting [1]) it was 3.4 ± 0.5 µM; in the experiment with MDA-MB-231 cells (setting [2]), 8.45 µM; in the experiment with MDA-MB-231 cells (MTT assay, mean ± SD of three independent trials, listed as C00012, read-out: IC50 ± SD, MDA-MB-231), 8.43 ± 0.6 µM. Also, the “CDK-2 kinase activity remaining (% of control)” value worked out at 90.99% at CDK-2 kinase (0.01 µM, ΔT=30 min); 76% on CDK-2 kinase (0.1 µM, ΔT=30 min); 60.44% at CDK-2 kinase (1 µM, ΔT=30 min); 56.06% on CDK-2 kinase (2.5 µM, ΔT=30 min); 36.07% at CDK-2 kinase (5 µM, ΔT=30 min); 29.31% at CDK-2 kinase (10 µM, ΔT=30 min). Also, the inhibition at 0.01 µM at CDK-2 kinase (0.01 µM, ΔT=30 min, read-out: % of inhibition, CDK2) was determined as 9.01%; against EGFR kinase (0.01 µM, ΔT=30 min) it was 30.3%. Further, the inhibition at 0.1 µM at CDK-2 kinase (0.1 µM, ΔT=30 min, read-out: % of inhibition, CDK2) is 24%; on EGFR kinase (0.1 µM, ΔT=30 min) it was 39.9%. Moreover, the inhibition at 1 µM at CDK-2 kinase (1 µM, ΔT=30 min, read-out: % of inhibition, CDK2) stood at 39.6%; against EGFR kinase (1 µM, ΔT=30 min), 51.1%. The inhibition at 2.5 µM at CDK-2 kinase (2.5 µM, ΔT=30 min, read-out: % of inhibition, CDK2) is 43.9%; at EGFR kinase (2.5 µM, ΔT=30 min), 58.7%. Besides, the inhibition at 5 µM at CDK-2 kinase (5 µM, ΔT=30 min, read-out: % of inhibition, CDK2) worked out at 63.9%; against EGFR kinase (5 µM, ΔT=30 min) it was 80.1%. In addition, the inhibition at 10 µM on CDK-2 kinase (10 µM, ΔT=30 min, read-out: % of inhibition, CDK2) is 89.4%; at EGFR kinase (10 µM, ΔT=30 min), 89.9%. The “% remaining EGFR kinase activity (relative to control)” value came to 69.72% on EGFR kinase (0.01 µM, ΔT=30 min); 60.14% at EGFR kinase (0.1 µM, ΔT=30 min); 48.86% on EGFR kinase (1 µM, ΔT=30 min); 41.25% on EGFR kinase (2.5 µM, ΔT=30 min); 19.88% at EGFR kinase (5 µM, ΔT=30 min); 11.75% at EGFR kinase (10 µM, ΔT=30 min). Further, the “% Of EGFR inhibition” value at EGFR kinase (concentration not given in Table 2, matches 10 µM in the 4th table) worked out at 89.8 ± 2.8%.

On to `COC(=O)[C@@H](NC(=O)CN1C(=O)S[C@@]2(C1=O)[C@@H](c1ccc(Br)cc1)[C@H]1CSCN1[C@@]21C(=O)Nc2ccc(F)cc21)C(C)C` [Compound 5m, Methyl (2-((3S,6′S,7′S,7a′S)-7'-(4-bromophenyl)-5-fluoro-2,2″,4″-trioxo-7′,7a′-dihydro-1′H,3′H-dispiro [indoline-3,5′-pyrrolo [1,2-c]thiazole-6′,5″-thiazolidin]-3″-yl)acetyl)valinate], for which the IC50 in the experiment with MCF-7 cells (setting [1]) came out at 4.5 ± 0.4 µM; in the experiment on MDA-MB-231 cells (setting [2]), 6.3 ± 0.3 µM.

With `COC(=O)CCCNC(=O)CN1C(=O)S[C@@]2(C1=O)[C@@H](c1ccc(Br)cc1)[C@H]1CSCN1[C@@]21C(=O)Nc2cc(Cl)ccc21` [Compound 5o, Methyl 4-(2-((3S,6′S,7′S,7a′S)-7'-(4-bromophenyl)-6-chloro-2,2″,4″-trioxo-7′,7a′-dihydro-1′H,3′H-dispiro [indoline-3,5′-pyrrolo [1,2-c]thiazole-6′,5″-thiazolidin]-3″-yl)acetamido)butanoate], the IC50 in the experiment on MCF-7 cells (setting [1]) came out at 4.12 ± 0.4 µM; in the experiment on MDA-MB-231 cells (setting [2]), 4.32 ± 0.5 µM.

For `C#Cc1cccc(Nc2ncnc3cc(OCCOC)c(OCCOC)cc23)c1` [Erlotinib, reference compound], the IC50 in the experiment on MCF-7 cells (MCF7, read-out: IC50 ± SD, MCF-7) was determined as 2.14 ± 0.3 µM; with MDA-MB-231 cells (Homo sapiens, MDA-MB-231, read-out: IC50 ± SD, MDA-MB-231), 3.25 ± 0.5 µM.
